Experimental data published in US8969357B2, “Methods for treating HCV” (AbbVie Inc., priority 2011, dated 2015).

How the values were obtained:
1b-Con1 replicons = experiment: Predominant resistant variants selected in genotype 1b replicons; assay type: cell-based, HCV
Experimental: (§1) Predominant resistant variants selected by Compound 1, 2, or 4 in genotype 1 replicons were also determined. For Compound 1, the predominant resistance variants in 1a-H77 replicons include R155K, D168A and D168V with fold resistance of 26, 48 and 128, respectively; and the predominant resistance variants in 1b-Con1 replicons include R155K, A156T and D168V with fold resistance of 48, 9 and 190, respectively. For Compound 2, the predominant resistance variants in 1a-H77 replicons include C316Y, M414T, Y448C and S556G with fold resistance of 1600, 36, 980 and 15, respectively; and the predominant resistance variants in 1b-Con1 replicons include C316Y, M414T and D559G with fold resistance of 1400, 26 and 100, respectively. For Compound 4, the predominant resistance variants in 1a-H77 replicons include M28T, M28V, Q30R, Y93C and Y93H with fold resistance of 9000, 60, 800, 1700 and 41000, respectively; and the predominant resistance variants in 1b-Con1 replicons include Y93H with fold resistance of 55.

1a-H77 replicons = experiment: Predominant resistant variants selected in genotype 1a replicons; assay type: cell-based, HCV
Experimental: as §1

## COC(=O)N[C@H](C(=O)N1CCC[C@H]1C(=O)Nc1ccc([C@@H]2CC[C@@H](c3ccc(NC(=O)[C@@H]4CCCN4C(=O)[C@@H](NC(=O)OC)C(C)C)cc3)N2c2ccc(C(C)(C)C)cc2)cc1)C(C)C [Compound 4, dimethyl (2S,2′S)-1,1′-((2S,2′S)-2,2′-(4,4′-(2S,5S)-1-(4-tert-butylphenyl)pyrrolidine-2,5,diyl)bis(4,1-phenylene))bis(azanediyl)bis(oxomethylene)bis(pyrrolidine-2,1-diyl)bis(3-methyl-1-oxobutane-2,1-diyl)dicarbamate]
1b-Con1 replicons; variant Y93H
  fold resistance: 55 fold
1a-H77 replicons; variant M28T
  fold resistance: 9000 fold
1a-H77 replicons; variant M28V
  fold resistance: 60 fold
1a-H77 replicons; variant Q30R
  fold resistance: 800 fold
1a-H77 replicons; variant Y93C
  fold resistance: 1700 fold
1a-H77 replicons; variant Y93H
  fold resistance: 41000 fold

## COc1c(-c2ccc3cc(NS(C)(=O)=O)ccc3c2)cc(-n2ccc(=O)[nH]c2=O)cc1C(C)(C)C [Compound 2, N-(6-(3-tert-butyl-5-(2,4-dioxo-3,4-dihydropyrimidin-1(2H)-yl)-2-methoxyphenyl)naphthalen-2-yl)methanesulfonamide]
1b-Con1 replicons; variant C316Y
  fold resistance: 1400 fold
1b-Con1 replicons; variant D559G
  fold resistance: 100 fold
1b-Con1 replicons; variant M414T
  fold resistance: 26 fold
1a-H77 replicons; variant C316Y
  fold resistance: 1600 fold
1a-H77 replicons; variant M414T
  fold resistance: 36 fold
1a-H77 replicons; variant S556G
  fold resistance: 15 fold
1a-H77 replicons; variant Y448C
  fold resistance: 980 fold

## Cc1cnc(C(=O)N[C@H]2CCCCC/C=C\[C@@H]3C[C@@]3(C(=O)NS(=O)(=O)C3CC3)NC(=O)[C@@H]3C[C@@H](Oc4nc5ccccc5c5ccccc45)CN3C2=O)cn1 [Compound 1, (2R,6S,13aS,14aR,16aS,Z)—N-(cyclopropylsulfonyl)-6-(5-methylpyrazine-2-carboxamido)-5,16-dioxo-2-(phenanthridin-6-yloxy)-1,2,3,5,6,7,8,9,10,11,13a,14,14a,15,16,16a-hexadecahydrocyclopropa[e]pyrrolo[1,2-a][1,4]diazacyclopentadecine-14a-carboxamide]
1b-Con1 replicons; variant A156T
  fold resistance: 9 fold
1b-Con1 replicons; variant D168V
  fold resistance: 190 fold
1b-Con1 replicons; variant R155K
  fold resistance: 48 fold
1a-H77 replicons; variant D168A
  fold resistance: 48 fold
1a-H77 replicons; variant D168V
  fold resistance: 128 fold
1a-H77 replicons; variant R155K
  fold resistance: 26 fold
